# System: awake spastic rats
# Assay: Spastic rat model (EMG activity during ankle dorsiflexion after spinal cord ischemia)
# Format: in vivo, Sprague-Dawley rats
# Description: FIG. 2 describes the rat spasticity model. (A,B) Electromyogram (EMG) responses (recorded from the gastrocnemius muscle) from an awake, but restrained normal and representative spastic rat when the ankle is rotated at velocity of (40°/3 sec) using a computer-controlled ankle rotational device. The presence of spasticity is identified by the appearance of burst EMG activity (active EMG). (C) To calculate the percent of inhibition of spastic muscle activity by a test agent during ankle dorsiflexion, animals were anaesthetized with isoflurane at the end of the experiment and the magnitude of active EMG during ankle dorsiflexion measured under isoflurane anaesthesia is then used as the maximum possible effect and is defined in each spastic animal. All drug treatment data generated after treatment are then normalized in using the maximum effect seen under isoflurane anaesthesia.
# Animal: Male Sprague-Dawley rats (approximately 350 gram body weight) were used in the assay. The rats were housed at room temperature (65-82° F.) and relative humidity within the range between 30 to 70%. The room will be illuminated with fluorescent lighting on a daily 12 hour light/dark cycle. All animals will have free access to dry food. Municipal water will be freely available.
# Spasticity development and measurement: Rats were exposed to transient spinal cord ischemia by aortic balloon occlusion for 10-12 minutes. Animals with fully developed spasticity will be selected at 4-8 weeks after ischemic injury and prepared for spasticity measurement. Presence of spasticity will be defined by increased peripheral muscle resistance measured during computer-controlled ankle dorsiflexion and correlative changes in EMG (electromyography) activity measured in gastrocnemius muscle (see FIG. 2).
# An increased EMG activity induced by ankle dorsiflexion is a consistent and reliable measure of spasticity. Before administration of dantrolene, baseline EMG measurements were conducted. Animals with identified spasticity were then assigned to the experimental groups to be treated with dantrolene or vehicle through intraperitoneal and intrathecal routes.
# Intraperitoneal dosing: Three different doses (5, 15, 50 mg/kg) of dantrolene and vehicle were injected intraperitoneally (6 rats per treatment/dose). After dantrolene administration, correlative changes in EMG were recorded at 15, 30, 60, 90, and 120 minutes following intraperitoneal injection. Changes in baseline EMG activity and ankle-rotation evoked EMG activity were then analyzed and the efficacy of treatment on spasticity calculated.
# Intrathecal dosing: Animals with identified spasticity were implanted intrathecally with a fine plastic (e.g., PE-10) catheter for bolus drug delivery. Two to three days after intrathecal catheter implantation, the baseline spasticity response was measured and animals were then injected IT with dantrolene (250 μg, 6 rats) and spasticity response was measured for 2 hrs. In control animals (6 rats) vehicle was injected only.
# [1] = intraperitoneal (IP), 50 mg/kg, single injection, awake spastic rats
Structure (SMILES),"effect on spastic activity (positive control, maximal anti-spastic effect) (isoflurane anesthesia at the end of the experiment, defined as 0%)","effect of systemic administration on spastic activity (intraperitoneal (IP) injection, 5, 15, 50 mg/kg, awake spastic rats)","spastic activity, % of the pre-treatment level (intraperitoneal (IP), 50 mg/kg, single injection, highest dose tested, awake spastic rats)",duration of reduction of spastic activity [1],reduction of spastic activity [1],"anti-spastic effect of intrathecal administration (intrathecal (IT), single 250 μg bolus injection, awake spastic rats (n=6), at least as robust as 50 mg/kg systemic)"
FC(F)OC(Cl)C(F)(F)F (stereo not drawn) [Isoflurane],virtually eliminated all spastic activity,–,–,–,–,–
O=C1CN(/N=C/c2ccc(-c3ccc([N+](=O)[O-])cc3)o2)C(O)=N1 [dantrolene],–,reduces spastic activity in the awake spastic rats in a dose dependent manner,about 30%,at least 2 hours,70%,potent anti-spastic effect
